# Legend:
# Rattus norvegicus [1] = assay: (§1) Antiallergic activity in anti-Nippostrongylus brasiliensis homocytotropic antibody-injected Sprague-Dawley rat assessed as inhibition of passive cutaneous anaphylaxis reaction at 10 mg/kg, ip administered 15 mins prior to worm extract antigen challenge measured 45 mins following antigen challenge by Evans blue dye staining; format: functional; details: route intraperitoneal; for inhibition in vivo at 10 mg/kg: Rattus norvegicus, Sprague-Dawley, ip
# [2] = 1-Octanol-citrate buffer partition coefficient, log P of the compound at pH 4.0 by UV spectrometry; format: physicochemical
# Rattus norvegicus [3] = assay: as §1, with “5” for “10”; format: functional; details: route intraperitoneal
# Rattus norvegicus [4] = assay: as §1, with “at 25” for “at 10”, “mg/kg, po” for “mg/kg, ip”, “administered 8” for “administered 15”; format: functional
Compound,inhibition in vivo at 10 mg/kg (Rattus norvegicus [1]),log(%) (Rattus norvegicus [1]),logD [2],inhibition in vivo at 5 mg/kg (Rattus norvegicus [3]),inhibition in vivo at 25 mg/kg (Rattus norvegicus [4])
O=C(O)c1ccc2oc3ccc(OCC(O)CSC45CC6CC(CC(C6)C4)C5)cc3c(=O)c2c1 (stereo not given),16%,1.2,2.58,–,–
O=C(O)c1ccc2oc3ccc(OCC(O)CSc4ccc(Cl)cc4)cc3c(=O)c2c1 (stereo not given),–,–,–,37%,–
O=C(O)c1ccc2oc3ccc(OCCO)cc3c(=O)c2c1,100%,–,–,100%,100%
O=C(O)c1ccc2oc3ccc(OCC(O)CSC4CCCCC4)cc3c(=O)c2c1 (stereo not given),39%,1.59,2.95,–,–
CC(C)(C)SCC(O)COc1ccc2oc3ccc(C(=O)O)cc3c(=O)c2c1 (stereo not given),83%,1.92,2.83,–,–
CC(C)SCC(O)COc1ccc2oc3ccc(C(=O)O)cc3c(=O)c2c1 (stereo not given),38%,1.54,3.06,–,–
O=C(O)c1ccc2oc3ccc(OCC(O)C[S+]([O-])c4ccccc4)cc3c(=O)c2c1 (stereo not given),–,–,–,42%,–
O=C(O)c1cc(=O)c2c(OCC(O)COc3cccc4oc(C(=O)O)cc(=O)c34)cccc2o1 [CROMOLYN SODIUM],89%,–,–,–,–
O=C(O)c1ccc2oc3ccc(OCC(O)CSc4ccc(F)cc4)cc3c(=O)c2c1 (stereo not given),–,–,–,38%,–
COc1ccc(SCC(O)COc2ccc3oc4ccc(C(=O)O)cc4c(=O)c3c2)cc1 (stereo not given),–,–,–,51%,–
O=C(O)c1ccc2oc3ccc(OCC(O)CSc4ccccc4)cc3c(=O)c2c1 (stereo not given),100%,2,3.8,88%,22%
CCCCCCCSCC(O)COc1ccc2oc3ccc(C(=O)O)cc3c(=O)c2c1 (stereo not given),17%,1.23,2.81,–,–
O=C(O)c1ccc2oc3ccc(OCC(O)CSc4ccc(Cl)c(Cl)c4)cc3c(=O)c2c1 (stereo not given),–,–,–,7%,–
CSCC(O)COc1ccc2oc3ccc(C(=O)O)cc3c(=O)c2c1 (stereo not given),71%,1.85,2.81,–,48%
O=C(O)c1ccc2oc3ccc(OCC(O)COCCO)cc3c(=O)c2c1 (stereo not given),77%,1.89,2.31,–,–
O=C(O)c1ccc2oc3ccc(OCC(O)CO)cc3c(=O)c2c1 (stereo not given),78%,1.89,2.33,–,19%
O=C(O)c1ccc2oc3ccc(OCC(O)CSCCO)cc3c(=O)c2c1 (stereo not given),100%,2,2.32,–,0%
O=C(O)c1ccc2oc3ccc(OCC(O)COCC(F)(F)F)cc3c(=O)c2c1 (stereo not given),100%,2,3.14,–,0%
O=C(O)c1ccc2oc3ccc(OCC(O)CSc4ccc(Br)cc4)cc3c(=O)c2c1 (stereo not given),–,–,–,14%,–
C[S+]([O-])CC(O)COc1ccc2oc3ccc(C(=O)O)cc3c(=O)c2c1 (stereo not given),100%,2,1.36,–,0%
COCC(O)COc1ccc2oc3ccc(C(=O)O)cc3c(=O)c2c1 (stereo not given),29%,1.46,2.13,–,–
COCCOCC(O)COc1ccc2oc3ccc(C(=O)O)cc3c(=O)c2c1 (stereo not given),99%,2,2.08,–,15%
